Source: ChEMBL document CHEMBL1135795, “Bacteriopurpurinimides: highly stable and potent photosensitizers for photodynamic therapy” (J Med Chem, 2002)

Experiment: Partition coefficient (logP)
Format: physicochemical
Conditions: octanol/water

logP (read-out: logP)	logP	Compound
8.18	–	CCCCCCN1C(=O)c2c3nc(cc4[nH]c(cc5nc(cc6[nH]c2c(c6C)C1=O)[C@H](CC)[C@H]5C)c(C(C)OC)c4C)[C@@H](C)[C@@H]3CCC(=O)OCCC (stereo partly drawn)
–	9.16	CCCCCCN1C(=O)C2=C(C)c3cc4[nH]c(cc5[nH]c(cc6nc(c(c2n3)C1=O)[C@@H](CCC(=O)OCCC)[C@@H]6C)c(C)c5C(C)OCCC)[C@H](C)[C@H]4CC (stereo partly drawn)
–	11.19	CCCCCCCOC(C)C1=C(C)c2cc3[nH]c(c4c5[nH]c(cc6nc(cc1n2)[C@H](C)[C@H]6CC)c(C)c5C(=O)N(CCCCCC)C4=O)[C@@H](CCC(=O)OCCC)[C@@H]3C (stereo partly drawn)
